This note sets out measurements from patent US20110201648A1, “POLY-HETEROARYL DERIVATIVES FOR THE TREATMENT OF CANCER” (INSTITUT CURIE, priority 2008, published 2011).

Structures are written as SMILES.

The test has as its system 22AG quadruplex-DNA (human telomeric sequence). In words: Fluorescence titration with 22AG. In kind it is binding. To be noted: 0.25 μM compound, λex=340 nm. As for the experimental part: The quadruplex-DNA used herein is 22AG: it results from the folding of a 22 nt oligonucleotide that mimics the human telomeric sequence: 22AG is [5′-AG3(T2AG3)3-3′]. Quadruplex-structure from 22AG is prepared by heating the corresponding oligonucleotide at 90° C. for 5 min in a 10 mM sodium cacodylate buffer pH 7.2, 100 mM NaCl (for 22AG Na) or KCl (for 22AG K) and cooling in ice to favor the intramolecular folding by kinetic trapping. Concentrations are determined by UV-Vis measurements (after thermal denaturation, 5 min at 85° C.) at 260 nm before use. (see FIG. 7A and FIG. 7B).

For the molecule `c1cc(-c2cnc(-c3cccc(-c4cnco4)n3)o2)nc(-c2cnc(-c3cccc(-c4cnco4)n3)o2)c1` [compound 3, 2,6-bis{2-[6-(oxazol-5-yl)pyridin-2-yl]oxazol-5-yl}pyridine], the “fluorescence of compound upon addition of 22AG K” value (cacodylate buffer + 100 mM KCl) is “progressive quench of the fluorescence”. Besides, for the setting “cacodylate buffer + 100 mM NaCl”, the “fluorescence of compound upon addition of 22AG Na” value is reported as “progressive quench of the fluorescence”.
